Assays:
[1] = system: Tel-cKit/N822K-BaF3 cells (KIT N822K); assay: Cell proliferation, CCK-8, Tel-cKit/N822K-BaF3; assay type: cell-based; details: Mus musculus, 72 hours
Description: (§1) In addition, in the present example, further uses: mouse P210/BaF3 (stably expressing P210 Bcr-Abl mutant gene), mouse Tel-ABL-BaF3 (stably expressing wild-type ABL kinase), mouse Tel-cKit-BaF3 (stably expressing C-KITwild-type kinase), mouse Tel-cKit/V559D-BaF3 (stably expressing C-KIT V559D mutant kinase), mouse Tel-cKit/V559D/V654A-BaF3 (stably expressing C-KIT V559D/V654A mutant kinase), mouse Tel-cKit/N822K-BaF3 (stably expressing C-KIT N822K mutant kinase), mouse Tel-cKit/V654A-BaF3 (stably expressing C-KIT V654A mutant kinase), mouse Tel-cKit/L567P-BaF3 (stably expressing C-KIT L567P mutant kinase), mouse Tel-cKit/T670I-BaF3 (stably expressing C-KIT T670I mutant kinase), mouse Tel-PDGFRα-BaF3 (stably expressing PDGFRα kinase), mouse Tel-PDGFRβ-BaF3 (stably expressing PDGFRβ kinase), mouse Tel-VEGFR2-BaF3 (stably expressing VEGFR2 kinase), mouse Tel-RET-BaF3 (stably expressing RET kinase). The above cell lines were all constructed by our laboratory according to the following method: the kinase region sequences of human P210 Bcr-Abl, ABL, C-KIT, C-KIT V559D, C-KIT V559D/V654A, C-KIT N822K, C-KIT V654A, C-KIT L567P, C-KIT T670I, PDGFRα, PDGFRβ, VEGFR2, RET were amplified respectively by PCR, inserted respectively into MSCV-Puro vectors harboring N-terminal TEL fragment and/or NPM fragment and/or TPR fragment (Clontech), then the vectors were stably transfected into mouse BaF3 cells by retrovirus methods and growth factor IL-3 was removed, eventually obtaining cell lines that are transferred protein (P210 Bcr-Abl, ABL, C-KIT, C-KIT V559D, C-KIT V559D/V654A, C-KIT N822K, C-KIT V654A, C-KIT L567P, C-KIT T670I, PDGFRα, PDGFRβ, VEGFR2, RET)-dependent.
(§2) The cells were incubated for 72 hours, and then the number of viable cells was quantified with a microplate reader by using CCK-8 Cell Viability Assay Kit (purchased from Bestbio Company, Shanghai, China) (CCK-8 can be reduced by dehydrogenase in living cells to a highly water-soluble yellow formazan product, and the amount of formazan produced is proportional to the number of living cells).

[2] = system: Tel-cKit-BaF3 cells (KIT WT); assay: Cell proliferation, CCK-8, Tel-cKit-BaF3; assay type: cell-based; details: Mus musculus, 72 hours
Description: as §1, §2

[3] = system: Tel-PDGFRβ-BaF3 cells (PDGFRβ); assay: Cell proliferation, CCK-8, Tel-PDGFRβ-BaF3; assay type: cell-based; details: Mus musculus, 72 hours
Description: as §1, §2

[4] = system: Tel-cKit/V654A-BaF3 cells (KIT V654A); assay: Cell proliferation, CCK-8, Tel-cKit/V654A-BaF3; assay type: cell-based; details: Mus musculus, 72 hours
Description: as §1, §2

BaF3 cells = assay: Cell proliferation, CCK-8, parental BaF3; assay type: cell-based; details: Mus musculus, 72 hours
Description: (§3) In the present example, the following cells were used: chronic myelogenous leukemia cells K562 (expressing P210 Bcr-Abl mutant gene), human megakaryocytic leukemia cells MEG-01 (expressing P210 Bcr-Abl mutant gene), human peripheral blood basophilic leukemia cells Ku812 (expressing Bcr-Abl mutant gene) (all above cells purchased from ATCC, USA), human gastrointestinal stromal tumor cell lines GIST-T1 cells (expressing wild-type C-KIT gene) (purchased from Cosmo Bio Co., Ltd., Japan), human gastrointestinal stromal tumor cell lines GIST-882 cells (expressing wild-type C-KIT gene) (presented by the Professor Gray Lab, Dana-Farber Cancer Institute, Harvard University, USA), mouse pro-B cells BaF3 (purchased from ATCC, USA).
as §2

[5] = system: Tel-RET-BaF3 cells (RET WT); assay: Cell proliferation, CCK-8, Tel-RET-BaF3; assay type: cell-based; details: Mus musculus, 72 hours
Description: as §1, §2

[6] = system: Tel-PDGFRα-BaF3 cells (PDGFRα); assay: Cell proliferation, CCK-8, Tel-PDGFRα-BaF3; assay type: cell-based; details: Mus musculus, 72 hours
Description: as §1, §2

GIST-T1 cells = assay: Cancer cell proliferation, CCK-8, GIST-T1; assay type: cell-based; details: Homo sapiens, GISTT1, GIST-T1, KIT WT, 72 hours
Description: as §3, §2

[7] = system: Tel-cKit/V559D-BaF3 cells (KIT V559D); assay: Cell proliferation, CCK-8, Tel-cKit/V559D-BaF3; assay type: cell-based; details: Mus musculus, 72 hours
Description: as §1, §2

[8] = system: cells expressing wild-type C-KIT kinase; assay: Cell proliferation, C-KIT cells; assay type: cell-based; details: cells expressing C-KIT kinase, summary of Table 2
Description: as §3, §1, §2

[9] = system: Tel-VEGFR2-BaF3 cells (VEGFR2); assay: Cell proliferation, CCK-8, Tel-VEGFR2-BaF3; assay type: cell-based; details: Mus musculus, Tel-VEGFR2-BaF3, VEGFR2, 72 hours
Description: as §1, §2

[10] = Acute toxicity assay in mice, single oral gavage; assay type: in vivo; details: for Number of death (number of death/number of animals in each group): female mice, 7 days observation
Procedure: 1. 4-6 week-old Bal b/c female mice were purchased from Shanghai SLAC Experimental Animal Co., Ltd., and were raised in a SPF-level laboratory. Drinking water and padding were both subjected to aseptic processing via high-pressure disinfection, and all operations of the mice were conducted under aseptic conditions; 10 healthy mice were selected, and were balanced and randomly divided into 5 groups according to their weights.
2. Specific Information for Administration
Route of administration: oral gavage
Observation period: 7 days.
3. Observation Indicators
Weighing frequency: upon grouping, the day of administration (D0) to the seventh day after administration (D7). Based on the mouse weight on D0 (starting value of 100%), the graph of the relative body weight over time was plotted.
3.2. Clinical Symptoms Observation
Strict observation was carried out within 4 hours after administration, and then observation was carried out twice a day for a total of 7 days. Observation was carried out and abnormal symptoms or phenomena in each of animals were recorded.
The number of animals died in each of dosage groups during the observation period.
Comprehensive determination was performed based on animal mortality, clinical symptoms and body weights.

GIST-882 cells = assay: Cancer cell proliferation, CCK-8, GIST-882; assay type: cell-based; details: Homo sapiens, GIST882, GIST-882, KIT WT, 72 hours
Description: as §3, §2

[11] = system: Tel-cKit/T670I-BaF3 cells (KIT T670I); assay: Cell proliferation, CCK-8, Tel-cKit/T670I-BaF3; assay type: cell-based; details: Mus musculus, 72 hours
Description: as §1, §2

[12] = system: phosphorylation of Bcr-Abl kinase and pathway proteins in K562 cells; assay: Effects on cell signaling pathways (phosphorylation), K562; assay type: cell-based, human; details: K562, 0.1 μM, 2 hours
[13] = system: Tel-cKit/L576P-BaF3 cells (KIT L576P); assay: Cell proliferation, CCK-8, Tel-cKit/L576P-BaF3; assay type: cell-based; details: Mus musculus, 72 hours
Description: as §1, §2

[14] = system: Tel-cKit/V559D/V654A-BaF3 cells (KIT V559D/V654A); assay: Cell proliferation, CCK-8, Tel-cKit/V559D/V654A-BaF3; assay type: cell-based; details: Mus musculus, 72 hours
Description: as §1, §2

[15] = system: gastrointestinal stromal tumor cell lines GIST-882; assay: Mouse tumor model of GIST-882 cells; assay type: in vivo; details: GIST-882 model, 100 mg/kg oral daily, Day 21 after administration
Procedure: (§4) 1. 4-6 week-old Bal b/c female mice were purchased from Shanghai SLAC Experimental Animal Co., Ltd., and were raised in a SPF-level laboratory. Drinking water and padding were both subjected to aseptic processing via high-pressure disinfection, and all operations of the mice were conducted under aseptic conditions;
(§5) 2. About 5×10^6 gastrointestinal stromal tumor cell lines GIST-T1 or GIST-882 (purchased from ATCC) were respectively injected subcutaneously at left side back of all mice at Day 0;
(§6) 5. Mice were sacrificed on Day 36 (for GIST-882 mouse model) or Day 43 (GIST-T1 mouse model) and subcutaneous tumors were taken out and weighed for comparison;
(§7) 6. Tumor tissue specimens were prepared into protein lysate samples for further usage;
(§8) 7. Growth trend of subcutaneous tumors from Day 16 to Day 43 was derived, and tumor volume was calculated as length×width×width/2 mm^3.

[16] = system: gastrointestinal stromal tumor cell lines GIST-T1; assay: Mouse tumor model of GIST-T1 cells; assay type: in vivo; details: 100 mg/kg oral daily, Day 28 after administration
Procedure: as §4, §5, §6, §7, §8

[17] = system: Tel-ABL-BaF3 cells (ABL WT); assay: Cell proliferation, CCK-8, Tel-ABL-BaF3; assay type: cell-based; details: Mus musculus, 72 h
Description: (§9) In addition, in the present example, further uses: mouse P210/BaF3 (stably expressing P210 Bcr-Abl mutant gene), mouse Tel-ABL-BaF3 (stably expressing wild-type ABL kinase), mouse Tel-cKit-BaF3 (stably expressing C-KITwild-type kinase), mouse Tel-cKit/V559D-BaF3 (stably expressing C-KIT V559D mutant kinase), mouse Tel-cKit/V559D/V654A-BaF3 (stably expressing C-KIT V559D/V654A mutant kinase), mouse Tel-cKit/N822K-BaF3 (stably expressing C-KIT N822K mutant kinase), mouse Tel-cKit/V654A-BaF3 (stably expressing C-KIT V654A mutant kinase), mouse Tel-cKit/L567P-BaF3 (stably expressing C-KIT L567P mutant kinase), mouse Tel-cKit/T670I-BaF3 (stably expressing C-KIT T670I mutant kinase), mouse Tel-PDGFRα-BaF3 (stably expressing PDGFRα kinase), mouse Tel-PDGFRβ-BaF3 (stably expressing PDGFRβ kinase), mouse Tel-VEGFR2-BaF3 (stably expressing VEGFR2 kinase), mouse Tel-RET-BaF3 (stably expressing RET kinase). […]
as §2

Ku812 cells (Bcr-Abl) = assay: Cancer cell proliferation, CCK-8, Ku812; assay type: cell-based; details: Homo sapiens, KU812, 72 h
Description: as §3, §2

[18] = system: P210/BaF3 cells (P210 Bcr-Abl); assay: Cell proliferation, CCK-8, P210/BaF3; assay type: cell-based; details: Mus musculus, BaF3, 72 h
Description: as §9, §2

[19] = system: MEG-01 cells (P210 Bcr-Abl); assay: Cancer cell proliferation, CCK-8, MEG-01; assay type: cell-based; details: Homo sapiens, MEG-01, 72 h
Description: as §3, §2

[20] = system: K562 cells (P210 Bcr-Abl); assay: Cancer cell proliferation, CCK-8, K562; assay type: cell-based; details: Homo sapiens, K562, 72 h
Description: as §3, §2

Compound | GI50 [1] | GI50 [2] | GI50 [3] | GI50 [4] | GI50 (BaF3 cells) | GI50 [5] | GI50 [6] | GI50 (GIST-T1 cells) | GI50 [7] | GI50 [8] | GI50 [9] | GI50 (GIST-882 cells) | GI50 [11] | GI50 [13] | GI50 [14] | further results
Cc1ccc(NC(=O)c2ccc(CN3CCN(C)CC3)c(C(F)(F)F)c2)cc1OC1CCN(C(=O)c2ccncc2)CC1 [B] | 130 nM | 170 nM | 40 nM | 585 nM | > 10000 nM | 300 nM | 15 nM | 27 nM | 20 nM | < 500 nM | 7 nM |  |  |  |  | 
Cc1ccc(NC(=O)c2ccc(CN3CCN(C)CC3)c(C(F)(F)F)c2)cc1OC1CCN(C(=O)c2cccnc2)CC1 [Compound A] | 378 nM | 147 nM | 52 nM | 2260 nM | > 10000 nM | 390 nM | 95 nM | 14 nM | 134 nM |  | 17 nM | 67 nM | 1010 nM | 321 nM | 2450 nM | Number of death (number of death/number of animals in each group) ([10]; 250 mg/kg single oral gavage): ♀: 0/2; Number of death (number of death/number of animals in each group) ([10]; 500 mg/kg single oral gavage): ♀: 0/2; clinical symptoms ([10]; 1000 mg/kg single oral gavage): started to be quiet and lie down around 40 minutes; mice died ([10]; 1000 mg/kg single oral gavage): 1; Number of death (number of death/number of animals in each group) ([10]; 1000 mg/kg single oral gavage): ♀: 1/2; clinical symptoms ([10]; 2000 mg/kg single oral gavage): gait of mice was unstable; mice died ([10]; 2000 mg/kg single oral gavage): 2; Number of death (number of death/number of animals in each group) ([10]; 2000 mg/kg single oral gavage): ♀: 2/2; proteins in Bcr-Abl signaling pathways upstream and downstream [12]: very strong inhibitory effects
C=CC(=O)N1CCC(Oc2cc(NC(=O)c3ccc(CN4CCN(C)CC4)c(C(F)(F)F)c3)ccc2C)CC1 [Compound C] | 380 nM |  | 42 nM | 401 nM | > 10000 nM | 490 nM | 36 nM | 30 nM | 36 nM | < 500 nM | 5 nM |  | 952 nM |  |  | 
Cc1ccc(NC(=O)c2ccc(CN3CCN(C)CC3)cc2)cc1Nc1nccc(-c2cccnc2)n1 [imatinib] | 1290 nM | 412 nM |  | 2490 nM | > 10000 nM | 6310 nM |  | 8 nM | 39 nM | < 500 nM | > 10000 nM | 14 nM | 6670 nM | 102 nM | 3000 nM | tumor inhibition rate [15]: 49%; tumor inhibition rate [16]: 72.4%
Cc1cn(-c2cc(NC(=O)c3ccc(C)c(Nc4nccc(-c5cccnc5)n4)c3)cc(C(F)(F)F)c2)cn1 [nilotinib] | 166 nM | 47 nM | 32 nM | 365 nM | > 10000 nM | 2660 nM | 32 nM | 6 nM | 22 nM | < 500 nM | 5380 nM | 17 nM | 2860 nM | 81 nM | 648 nM | GI50 [17]: 26 nM; GI50 (Ku812 cells (Bcr-Abl)): 1.2 nM; GI50 [18]: 12.5 nM; GI50 [19]: 0.4 nM; GI50 [20]: 3 nM
